Test results published in US7090872B2, “Antioxidant, skin preparation for external use, cosmetic and food” (Nichirei Biosciences Inc., priority 2002, dated 2006).

Experiment: Antioxidative activity measurement using linoleic acid (ferric thiocyanate method)
Settings: 0.023 mg of vitamin C (amount contained in 0.4 mg of the solid); control = 100%
Description: Next, the antioxidative activity of the obtained extract was measured by antioxidative activity measurement using linoleic acid (ferric thiocyanate method).
Specifically, a mixture of 0.4 mg of the acerola seed extract, 2 ml of 99.5% ethanol, and 2 ml of distilled water was mixed with a reaction liquid composed of 2 ml of 2.5% (w/v) linoleic acid (99.5% ethanol solution) and 4 ml of a 0.05 M phosphate buffer (pH 7.0), and placed in a brown threaded bottle, to thereby prepare 10 ml of a test liquid. On the other hand, test liquids as positive controls were prepared in the same way using α-tocopherol or BHA in place of the acerola seed extract at the same content in the reaction liquid. […] Samples were taken out at intervals, and measured by the following methods. […]
First, to a mixture of 0.1 ml of the sample, 9.7 ml of 75% ethanol, and 0.1 ml of a 30% aqueous solution of ammonium rhodanide, 0.1 ml of 2×10^−2 M ferrous chloride (3.5% hydrochloric acid solution) was added, and exactly 3 minutes later, the absorbance at 500 nm was measured. The same measurement was made with the blanks, and Δabsorbance was taken according to the following formula: Δ absorbance=(absorbance of main sample)−(absorbance of blank). The absorbance increases with oxidation of the sample, and after reaching the maximum, decreases with consumption of the sample to be oxidized. […]

O=C1O[C@H]([C@@H](O)CO)C(O)=C1O [vitamin C]
degree of oxidation on day 7: 115.8%
